This note sets out measurements from patent US10988533B2, “Anti-pre-BCR antagonists and methods” (STC.UNM, priority 2015, dated 2021).

For assay [1], the system named is pre-BCR signaling in 697 cells. The experiment in a line: Western blotting of pre-BCR tonic signaling (phospho-CD79a, phospho-Syk) with pervanadate. Type of assay: cell-based, human. The following applies: for accumulation of phospho-Syk (Syk phosphorylation): in the presence of pervanadate, 30-minute treatment. The protocol: (§1) Results in FIG. 8 evaluate the ability of anti-VpreB Fabs, as well as inhibitors directed at pre-BCR downstream signaling partners Lyn, Syk and SHIP1 (INPP5D), to block tonic signaling from the pre-BCR.
(§2) After stated incubation +/− inhibitors or crosslinking agents, cells were washed with ice-cold PBS and held for 15 minutes on ice in Tris-based lysis buffer, with 1% NP-40 and protease and phosphatase inhibitors (ThermoFisher Scientific, Waltham, Mass.). For effects of inhibitors on BCL6 expression, treatments were carried out for 24 hours. Lysates were clarified by centrifugation at 14,000×g for 10 minutes at 4° C., then added to Laemmli's Reducing buffer. Proteins were separated on SDS-polyacrylamide and transferred to nitrocellulose membranes. After blocking with TBST (Sigma-Aldrich, St. Louis, Mo.) with 5% BSA (Sigma-Aldrich, St. Louis, Mo.), blots were probed with antibodies specific to pCD79a (Tyr 182) (Cell Signaling Technology, Inc., Danvers, Mass.), pSyk (Tyr348) (Novus Biologicals LLC, Littleton, Colo.), pSyk (Tyr 352) (Cell Signaling Technology, Inc., Danvers, Mass.) or BCL6 (Santa Cruz Biotechnology, Inc., Dallas, Tex.). Antibodies to β-Actin (Sigma-Aldrich, St. Louis, Mo.) were used as loading controls.
BCP-ALL cells were treated with pervanadate solution as previously described (Imbert et al., 1994, Biochem J297 (Pt 1):163-173; Smrz et al., 2008, J Biol Chem 283:10904-10918). Data in FIG. 8 are reported using a linear range normalization from 0 to 1.0, whereby tonic without pervanadate treatment response was set to 0 and tonic pervanadate treatment was set to 1.0: […]
Background: In western blotting, separated proteins are transferred to a membrane and probed.

For assay [2], the target named is T1, pre-BCR on 697 cells (Homo sapiens, UniProt P12018).
T1 construct: endogenous in cells; host or cells: 697 (BCP-ALL cell line)
T1 sequence (P12018 20-145): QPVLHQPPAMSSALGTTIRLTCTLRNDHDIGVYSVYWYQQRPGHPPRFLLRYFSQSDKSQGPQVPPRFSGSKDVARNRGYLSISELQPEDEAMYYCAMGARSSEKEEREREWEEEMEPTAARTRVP
Briefly: Single Particle Tracking of pre-BCR diffusion on 697 cells. Type of assay: cell-based. To be noted: Fab 1 μM, galectin-1 10 μM; for overall diffusion (mobility) of pre-BCR: relative to tonic signaling, inhibitors 1 μM. The protocol: Data are reported as changed in ensemble diffusion coefficients (MSD) for pre-BCR plus and minus saturating levels of anti-VpreB1 Fabs (1 μM). In these experiments, Fabs were added to 697 cells for 15 minutes at 37° C. prior to performing Single Particle Tracking (SPT).
Suspension cultures of BCP-ALL cell lines (697, Nalm6) were grown in RPMI 1640 with phenol red (Sigma-Aldrich, St. Louis, Mo.), with 10% (v/v) HI FBS, 1% Penicillin/Streptomycin (Gibco, Gaithersburg, Md.), and L-Glutamine 2 mM. Patient samples were cultured in IMDM, GlutaMAX medium (Gibco, Gaithersburg, Md.) supplemented with 20% (v/v) HI FBS, 1% penicillin/streptomycin, 1× insulin, transferrin and selenium (Gibco, Gaithersburg, Md.), 1 mM sodium pyruvate (Gibco, Gaithersburg, Md.), and 55 μM 2-Mercaptoethanol (Gibco, Gaithersburg, Md.). Prior to experiments, cells were washed twice with Tyrode's solution (Sigma-Aldrich, St. Louis, Mo.). Unless otherwise stated, cells were pretreated for 10 minutes with Bay-61-3606 (Santa Cruz Biotechnology, Inc., Dallas, Tex.; 1 μM), dasatinib (Santa Cruz Biotechnology, Inc., Dallas, Tex.; 1 μM), tofacitinib (Selleck Chemicals LLC, Houston, Tex.; 1 μM), anti-VpreB Fab (1 μM), 3AC (Echelon Biosciences, Inc., Salt Lake City, Utah), and/or recombinant galectin-1 (PreproTech, Inc., Rocky Hill, N.J.; 10 μM), +/− lactose.
LAB-TEK imaging chambers (ThermoFisher Scientific, Waltham, Mass.) were coated with poly-1-lysine hydrobromide (Sigma-Aldrich, St. Louis, Mo.) at 1 mg/ml in sterile water for 20 minutes at room temperature, followed by three washes. BCP-ALL cells were serum-starved in RPMI 1640 without FBS for two hours prior to being added to coated wells and incubated for 15 minutes at 37° C. QD-Fab-CD79b or QD-Fab-IgM were added at 100 pM in Tyrodes's solution (Sigma-Aldrich, St. Louis, Mo.) with 0.1% (w/v) BSA and 20 mM glucose for 10-15 minutes at 37° C.
All corresponding GPU single particle tracking and track elongation, squared displacement, mean square displacement, correlated motion, fiducial data acquisition and image registration and three-state hidden Markov Model used in this study have been described in detail previously (Low-Nam et al, 2011, Nat Struct Mol Biol 18:1244-1249).

The next assay has as its system 697 cells. The experiment in a line: flow cytometry apoptosis assay (Annexin-V / 7-AAD), 697 cells. To be noted: for apoptosis in cells treated with vincristine over a range of doses: inhibitor in combination with vincristine. In kind it is cell-based, human. The protocol: Since blocking pre-BCR pro-survival signaling may be advantageous for chemo-sensitization, one can compare apoptosis alone or in combination with a sub-lethal dose of a chemotherapeutic such as, for example, vincristine or daunorubicin.
Curves were fit using sigmoidal dose-response curve using MATLAB curve fitting toolbox (The MathWorks, Inc., Natick, Mass.).
Leukemia cell apoptosis was measured based upon binding to Annexin-V-FITC (BioLegend, Inc., San Diego, Calif.) and loss of cell viability measured by 7-AAD labeling (BioLegend, Inc., San Diego, Calif.), according to manufacturer's procedures. For receptor-binding experiments, cells were incubated under saturating conditions for 1.5 hours on ice in PBS with anti-CD79b-APC antibody (BioLegend, Inc., San Diego, Calif.) or anti-VpreB-PE antibody (BioLegend, Inc., San Diego, Calif.). […] (Bangs Laboratories, Inc., Fishers, Ind.) beads with anti-mouse Fc antibody according to manufacturer's instruction. Dissociation constants were estimated with nonlinear regression analysis under KD controlled conditions as described (Drake, A. W., and S. L. Klakamp, 2007, J Immunol Methods 318:147-152). All flow cytometry data collection was conducted on the […] platform (IntelliCyt Corp., Albuquerque, N. Mex.; Edwards et al., 2009, Methods Mol Biol 486:151-165) and analyzed with the FLOWJO Software Suite (FlowJo, LLC, Ashland, Oreg.).
(In flow cytometry, cells or beads pass a laser one at a time.)

In assay [3] the test system is patient #280 BCP-ALL blasts. Briefly: flow cytometry apoptosis assay (Annexin-V / 7-AAD), patient #280 cells. To be noted: patient #280 blasts, single agent, 24-hour culture (dasatinib 10 μM). Type of assay: cell-based, human. The procedure:
Blockade of pre-BCR homotypic self-association can sensitize patient cells to vincristine. […] Blasts from patient #280 also were very sensitive to dasatinib as a single agent (80% 7-AAD/Annexin-V positive after 24-hour culture). Longer incubations were not feasible, since cells from this patient were 40% 7-AAD positive when incubated with no drug or in the presence of vincristine up to 5 ng/ml.
Leukemia cell apoptosis was measured based upon binding to Annexin-V-FITC (BioLegend, Inc., San Diego, Calif.) and loss of cell viability measured by 7-AAD labeling (BioLegend, Inc., San Diego, Calif.), according to manufacturer's procedures. For receptor-binding experiments, cells were incubated under saturating conditions for 1.5 hours on ice in PBS with anti-CD79b-APC antibody (BioLegend, Inc., San Diego, Calif.) or anti-VpreB-PE antibody (BioLegend, Inc., San Diego, Calif.). Flow results were calibrated using QUANTUM SIMPLY CELLULAR (Bangs Laboratories, Inc., Fishers, Ind.) beads with anti-mouse Fc antibody according to manufacturer's instruction. […] All flow cytometry data collection was conducted on the HYPERCYT platform (IntelliCyt Corp., Albuquerque, N. Mex.; Edwards et al., 2009, Methods Mol Biol 486:151-165) and analyzed with the FLOWJO Software Suite (FlowJo, LLC, Ashland, Oreg.).

For assay [4], the system named is BCL6 expression in 697 cells. The experiment in a line: Western blotting of BCL6 expression in 697 cells. Type of assay: cell-based, human. The following applies: overnight (24 hours) treatment. The protocol:
as §1, §2

Assay [5] relates to BCL6 levels in patient #280 cells. The experiment in a line: Western blotting of BCL6 levels in patient #280 cells. In kind it is cell-based, human. To be noted: 24 hours. The procedure:
FIG. 14. Data showing that pre-BCR signaling contributes to survival of some BCP-ALL blasts. Data are shown for patient #280. A) Increase in apoptosis (Annexin labeling) and loss of cell viability (7AAD labeling) after prolonged incubation with dasatinib (10 μM) alone or in combination with vincristine over doses of 0.1 ng/ml to 100 ng/ml. B) Increase in apoptosis after 24-hour incubation of #280 patient cells with α-VpreB Fab (5 μM) alone or in combination with low dose vincristine (10 ng/ml).
After stated incubation +/− inhibitors or crosslinking agents, cells were washed with ice-cold PBS and held for 15 minutes on ice in Tris-based lysis buffer, with 1% NP-40 and protease and phosphatase inhibitors (ThermoFisher Scientific, Waltham, Mass.). For effects of inhibitors on BCL6 expression, treatments were carried out for 24 hours. Lysates were clarified by centrifugation at 14,000×g for 10 minutes at 4° C., then added to Laemmli's Reducing buffer. Proteins were separated on SDS-polyacrylamide and transferred to nitrocellulose membranes. […]

Assay [6] concerns the target T2, pre-BCR on 697 cells (Homo sapiens, UniProt P12018+P15814).
T2 construct: endogenous in cells; host or cells: 697 (BCP-ALL cell line)
The experiment in a line: fluorescence imaging of pre-BCR clustering by labeled galectin-1. In kind it is cell-based. The following applies: Alexa 555-conjugated galectin-1 10 μM, within five minutes.

T2 sequence (P15814 38-213, one chain of several): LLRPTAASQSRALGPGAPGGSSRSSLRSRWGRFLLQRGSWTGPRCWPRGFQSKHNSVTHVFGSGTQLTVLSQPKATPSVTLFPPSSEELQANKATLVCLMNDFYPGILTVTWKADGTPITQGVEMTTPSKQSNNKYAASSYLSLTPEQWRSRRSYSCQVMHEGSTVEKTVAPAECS

Consider `COc1ccc(-c2cc3nccn3c(Nc3ncccc3C(N)=O)n2)cc1OC` [Bay-61-3606], for which the “diminished accumulation of Syk PY352” value in assay [1] (pervanadate-treated) is “approximately 20%”. Further, the “overall diffusion (mobility) of pre-BCR” value at pre-BCR on 697 cells [2] is recorded as “overall increased mobility”. Further, the “apoptosis in cells treated with vincristine over a range of doses” value (“apoptosis … over a range of doses” for short) in the assay on 697 cells is on record as “potentiate apoptosis”.
`Cc1nc(Nc2ncc(C(=O)Nc3c(C)cccc3Cl)s2)cc(N2CCN(CCO)CC2)n1` [dasatinib] showed a 7-AAD/Annexin-V positive in assay [3] of 80%.
As to `CC(C)CCC[C@@H](C)[C@H]1CC[C@H]2[C@@H]3CC[C@H]4C[C@H](N)CC[C@]4(C)[C@H]3CC[C@]12C` [3AC, 3-a-aminocholestane], the “accumulation of phospho-Syk (Syk phosphorylation)” value in assay [1] is on record as “slightly elevated”. Also, in assay [4], the BCL6 expression entry is listed as “completely repressed”. In addition, the BCL6 levels result in assay [5] was “marked decline”. Also, the “apoptosis … over a range of doses” value in the assay on 697 cells was “potentiate apoptosis”.
In the case of `C[C@@H]1CCN(C(=O)CC#N)C[C@@H]1N(C)c1ncnc2[nH]ccc12` [tofacitinib], in assay [1], the “accumulation of phospho-Syk (Syk phosphorylation)” value was “did not alter”. For the same compound, the BCL6 expression result in assay [4] was “elevated levels”. Moreover, at pre-BCR on 697 cells [2], the “overall diffusion (mobility) of pre-BCR” value is recorded as “not Jak (tofacitinib) results in a global increase”. Also, the “apoptosis … over a range of doses” value with 697 cells was “potentiate apoptosis”.
Consider `CC[C@]1(O)C[C@H]2CN(CCc3c([nH]c4ccccc34)[C@@](C(=O)OC)(c3cc4c(cc3OC)N(C=O)[C@H]3[C@@](O)(C(=O)OC)[C@H](OC(C)=O)[C@]5(CC)C=CCN6CC[C@]43[C@@H]65)C2)C1` [vincristine], for which the apoptotic cells in the assay on 697 cells (vincristine 10 ng/ml, with or without VpreB Fabs (5 μM)) is given as 69.9%.
With “galectin-1: recombinant human galectin-1, crosslinks pre-BCR via surrogate light chain”, in the assay with pre-BCR on 697 cells [6], the “clustering of the pre-BCR” value is “marked clustering of the pre-BCR”. Also, in the assay with pre-BCR on 697 cells [2], the “immobile fraction of pre-BCR (D<0.05 μm^2/sec)” value was “A large fraction of pre-BCR become essentially immobile” and the “overall diffusion (mobility) of pre-BCR” value is recorded as “far less mobile”.
